From the supplement of paper PMC10307832 come the findings set out here.

Holding throughout (assay): relative viability (nuclei count vs DMSO), 5 days (fraction); higher = more cells survive
Compound in experiment [1]: C1CN(CCC1C(C2=CC3=C(C=C2)OCO3)(C4=CC5=C(C=C4)OCO5)O)C(=O)OC6=CC=C(C=C6)[N+](=O)[O-] [JZL-184] + CC(C)C[C@H](NC(=O)[C@H](Cc1ccccc1)NC(=O)c1cnccn1)B(O)O [Bortezomib] (partner 0.002 µM)
An outline of the steps: (§1)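 Values are medians from duplicate plates. Each reflects relative viability, defined as the nuclei count of treated wells over that of vehicle wells. Lung cancer cell lines in 1536-well plates were pin-tool dosed one day after seeding with one drug alone or with a fixed anchor-drug dose plus five library-drug doses (not always all listed) in √10 steps, then fixed, stained and imaged at 4× after 5 days.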

Compound in experiment [2]: C1CN(CCC1C(C2=CC3=C(C=C2)OCO3)(C4=CC5=C(C=C4)OCO5)O)C(=O)OC6=CC=C(C=C6)[N+](=O)[O-] [JZL-184] + COc1cccc2cc(-c3nc([C@H]4CC[C@H](C(=O)O)CC4)n4ncnc(N)c34)[nH]c12 [OSI-027] (partner 0.5 µM)
The method, boiled down: as §1

Compound in experiment [3]: C1CN(CCC1C(C2=CC3=C(C=C2)OCO3)(C4=CC5=C(C=C4)OCO5)O)C(=O)OC6=CC=C(C=C6)[N+](=O)[O-] [JZL-184] + C[C@@H](Oc1cc(-c2cnn(C3CCNCC3)c2)cnc1N)c1c(Cl)ccc(F)c1Cl [Crizotinib] (partner 1 µM)
The method, boiled down:
as §1

Compound in experiment [4]: C1CN(CCC1C(C2=CC3=C(C=C2)OCO3)(C4=CC5=C(C=C4)OCO5)O)C(=O)OC6=CC=C(C=C6)[N+](=O)[O-] [JZL-184] + Nc1nc2[nH]cc(CCc3ccc(C(=O)N[C@@H](CCC(=O)O)C(=O)O)cc3)c2c(=O)[nH]1 [Pemetrexed] (partner 0.2 µM)
An outline of the steps:
as §1

Compound in experiment [5]: C1CN(CCC1C(C2=CC3=C(C=C2)OCO3)(C4=CC5=C(C=C4)OCO5)O)C(=O)OC6=CC=C(C=C6)[N+](=O)[O-] [JZL-184] + Nc1ncn([C@H]2C[C@H](O)[C@@H](CO)O2)c(=O)n1 [Decitabine] (partner 2 µM)
An outline of the steps:
as §1

In the case of HCC-366, the relative viability in experiment [1] (first compound 0.04 µM) was 1.26; in experiment [1] (first compound 0.4 µM), 1.01; in experiment [1] (first compound 1.265 µM), 1.09; in experiment [1] (first compound 4 µM) it was 0.978; in experiment [2] (first compound 0.04 µM), 1.04; in experiment [2] (first compound 0.4 µM), 0.868. The relative viability in experiment [2] (first compound 1.265 µM) was 0.97; in experiment [2] (first compound 4 µM), 0.825; in experiment [3] (first compound 0.04 µM) it was 0.827; in experiment [3] (first compound 0.4 µM), 0.443; in experiment [3] (first compound 1.265 µM), 0.526; in experiment [3] (first compound 4 µM), 0.5. Moreover, the relative viability in experiment [4] (first compound 0.04 µM) came to 0.175; in experiment [4] (first compound 0.4 µM), 0.146; in experiment [4] (first compound 1.265 µM), 0.137; in experiment [4] (first compound 4 µM) it was 0.161; in experiment [5] (first compound 0.04 µM), 0.348; in experiment [5] (first compound 0.4 µM) it was 0.357. The relative viability in experiment [5] (first compound 1.265 µM) was 0.336; in experiment [5] (first compound 4 µM), 0.314.

In the case of HCC-827, the relative viability in experiment [1] (first compound 0.04 µM) was 1.11; in experiment [1] (first compound 0.4 µM) it was 0.911; in experiment [1] (first compound 1.265 µM), 1.07; in experiment [1] (first compound 4 µM) it was 1.02; in experiment [2] (first compound 0.04 µM), 0.954; in experiment [2] (first compound 0.4 µM), 0.769. Further, the relative viability in experiment [2] (first compound 1.265 µM) was 0.798; in experiment [2] (first compound 4 µM), 0.707; in experiment [3] (first compound 0.04 µM), 0.918; in experiment [3] (first compound 0.4 µM), 0.888; in experiment [3] (first compound 1.265 µM), 0.977; in experiment [3] (first compound 4 µM), 0.854. Moreover, the relative viability in experiment [4] (first compound 0.04 µM) came to 0.222; in experiment [4] (first compound 0.4 µM), 0.199; in experiment [4] (first compound 1.265 µM), 0.178; in experiment [4] (first compound 4 µM), 0.261; in experiment [5] (first compound 0.04 µM), 0.297; in experiment [5] (first compound 0.4 µM), 0.191. The relative viability in experiment [5] (first compound 1.265 µM) amounted to 0.306; in experiment [5] (first compound 4 µM), 0.312.

HOP-62: the relative viability came to 1.09 in experiment [1] (first compound 0.04 µM); 0.862 in experiment [1] (first compound 0.4 µM); 0.809 in experiment [1] (first compound 1.265 µM); 0.856 in experiment [1] (first compound 4 µM); 0.981 in experiment [2] (first compound 0.04 µM); 0.805 in experiment [2] (first compound 0.4 µM). Also, the relative viability in experiment [2] (first compound 1.265 µM) worked out at 0.826; in experiment [2] (first compound 4 µM), 0.866; in experiment [3] (first compound 0.04 µM) it was 1.01; in experiment [3] (first compound 0.4 µM) it was 0.905; in experiment [3] (first compound 1.265 µM), 1.05; in experiment [3] (first compound 4 µM) it was 0.839. The relative viability in experiment [4] (first compound 0.04 µM) was 0.331; in experiment [4] (first compound 0.4 µM) it was 0.312; in experiment [4] (first compound 1.265 µM) it was 0.306; in experiment [4] (first compound 4 µM), 0.309; in experiment [5] (first compound 0.04 µM), 0.249; in experiment [5] (first compound 0.4 µM), 0.197. The results for the relative viability in experiment [5] (first compound 1.265 µM) and in experiment [5] (first compound 4 µM) were 0.233 and 0.214, respectively.

For IA-LM, the relative viability is 1.04 in experiment [1] (first compound 0.04 µM); 0.786 in experiment [1] (first compound 0.4 µM); 0.844 in experiment [1] (first compound 1.265 µM); 0.866 in experiment [1] (first compound 4 µM); 0.988 in experiment [3] (first compound 0.04 µM); 0.467 in experiment [3] (first compound 0.4 µM). The relative viability amounted to 0.74 in experiment [3] (first compound 1.265 µM) and 0.9 in experiment [3] (first compound 4 µM).

For LC-2-ad, the relative viability in experiment [1] (first compound 0.04 µM) stood at 1.16; in experiment [1] (first compound 0.4 µM) it was 0.868; in experiment [1] (first compound 1.265 µM) it was 0.99; in experiment [1] (first compound 4 µM), 0.942; in experiment [2] (first compound 0.04 µM), 0.92; in experiment [2] (first compound 0.4 µM), 0.926. Further, the relative viability in experiment [2] (first compound 1.265 µM) amounted to 0.907; in experiment [2] (first compound 4 µM) it was 0.734; in experiment [3] (first compound 0.04 µM), 0.695; in experiment [3] (first compound 0.4 µM) it was 0.454; in experiment [3] (first compound 1.265 µM) it was 0.481; in experiment [3] (first compound 4 µM) it was 0.42. Further, the relative viability worked out at 0.293 in experiment [4] (first compound 0.04 µM); 0.278 in experiment [4] (first compound 0.4 µM); 0.279 in experiment [4] (first compound 1.265 µM); 0.265 in experiment [4] (first compound 4 µM); 0.687 in experiment [5] (first compound 0.04 µM); 0.718 in experiment [5] (first compound 0.4 µM). Moreover, the relative viability in experiment [5] (first compound 1.265 µM) was 0.887; in experiment [5] (first compound 4 µM) it was 0.787.

For the cell line LCLC-97TM1, the relative viability in experiment [1] (first compound 0.04 µM) amounted to 0.612; in experiment [1] (first compound 0.4 µM) it was 0.624; in experiment [1] (first compound 1.265 µM) it was 0.804; in experiment [1] (first compound 4 µM) it was 0.573; in experiment [2] (first compound 0.04 µM) it was 0.493; in experiment [2] (first compound 0.4 µM), 0.393. The relative viability in experiment [2] (first compound 1.265 µM) amounted to 0.504; in experiment [2] (first compound 4 µM), 0.559; in experiment [3] (first compound 0.04 µM) it was 0.574; in experiment [3] (first compound 1.265 µM) it was 0.505; in experiment [3] (first compound 4 µM), 0.271; in experiment [4] (first compound 0.04 µM), 0.166. Also, the relative viability in experiment [4] (first compound 0.4 µM) turned out to be 0.17; in experiment [4] (first compound 1.265 µM), 0.13; in experiment [4] (first compound 4 µM), 0.201; in experiment [5] (first compound 0.04 µM), 0.228; in experiment [5] (first compound 0.4 µM) it was 0.2; in experiment [5] (first compound 1.265 µM), 0.236. The relative viability in experiment [5] (first compound 4 µM) stood at 0.216.

As for LK-2, the relative viability in experiment [2] (first compound 0.04 µM) turned out to be 0.195; in experiment [2] (first compound 0.4 µM), 0.193; in experiment [2] (first compound 1.265 µM), 0.249; in experiment [2] (first compound 4 µM), 0.21; in experiment [3] (first compound 0.04 µM), 0.223; in experiment [3] (first compound 0.4 µM), 0.232. Besides, the relative viability amounted to 0.211 in experiment [3] (first compound 1.265 µM); 0.22 in experiment [3] (first compound 4 µM); 0.235 in experiment [4] (first compound 0.04 µM); 0.2 in experiment [4] (first compound 0.4 µM); 0.183 in experiment [4] (first compound 1.265 µM); 0.277 in experiment [4] (first compound 4 µM). Also, the relative viability in experiment [5] (first compound 0.04 µM) is 0.254; in experiment [5] (first compound 0.4 µM) it was 0.198; in experiment [5] (first compound 1.265 µM), 0.273; in experiment [5] (first compound 4 µM), 0.304.

In the case of NCI-H358, the relative viability in experiment [2] (first compound 0.04 µM) turned out to be 0.826; in experiment [2] (first compound 0.4 µM), 0.716; in experiment [2] (first compound 1.265 µM) it was 0.79; in experiment [2] (first compound 4 µM) it was 0.712; in experiment [3] (first compound 0.04 µM) it was 0.748; in experiment [3] (first compound 0.4 µM), 0.438. Moreover, the relative viability in experiment [3] (first compound 1.265 µM) was 0.595; in experiment [3] (first compound 4 µM), 0.49; in experiment [4] (first compound 0.04 µM) it was 0.195; in experiment [4] (first compound 0.4 µM) it was 0.162; in experiment [4] (first compound 1.265 µM) it was 0.181; in experiment [4] (first compound 4 µM) it was 0.163. For the same cell line, the relative viability was found to be 0.241 in experiment [5] (first compound 0.04 µM), 0.211 in experiment [5] (first compound 0.4 µM), 0.237 in experiment [5] (first compound 1.265 µM) and 0.21 in experiment [5] (first compound 4 µM).
